Results as given in PMC9143450, “Oxonitrogenated Derivatives of Eremophilans and Eudesmans: Antiproliferative and Anti-Trypanosoma cruzi Activity” (Molecules, 2022).
pIC50: −log10 of the molar value.

Columns and labels:
A549 = experiment: Antiproliferative SRB assay (NCI protocol), A549; assay type: cell-based, human; settings: for GI50: A549 (lung), 48 h drug exposure, SRB, ± SD; for Selectivity index (SI) on tumor cells: CC50 splenocytes / GI50 A549
Method: (§1) In vitro antiproliferative activity was evaluated using the protocol of the National Cancer Institute (NCI) after 48 h of drug exposure using the sulforhodamine B (SRB) assay.
(§2) The following human solid tumor cell lines were used in this study: HBL-100 (breast), HeLa (cervix), SW1573 (non-small cell lung), T-47D (breast), A549 (lung), and WiDr (colon). These cell lines were a kind gift from Prof. G. J. Peters (VU Medical Center, Amsterdam, The Netherlands). Cells were maintained in 25 cm^2 culture flasks in RPMI 1640 supplemented with 5% heat-inactivated fetal calf serum and 2 mM L-glutamine in a 37 °C, 5% CO2, 95% humidified air incubator. Exponentially growing cells were trypsinized and resuspended in antibiotic containing medium (100 units penicillin G and 0.1 mg of streptomycin per mL). Single cell suspensions displaying > 97% viability by trypan blue dye exclusion test were subsequently counted. After counting, dilutions were made to give the appropriate cell densities for inoculation onto 96-well microtiter plates. Cells were inoculated in a volume of 100 μL per well at densities of 5000 (WiDr and T-47D), and 2500 (A549, HeLa, SW1573 and HBL-100) cells per well, based on their doubling times.
(§3) Chemosensitivity tests were performed using the SRB assay of the NCI with slight modifications. Briefly, pure compounds were initially dissolved in DMSO at 400 times the desired final maximum test concentration. Control cells were exposed to an equivalent concentration of DMSO (0.25% v/v, negative control). Each agent was tested in triplicates at different dilutions in the range 1–100 μM. Drug treatment started on day 1 after plating. Drug incubation periods were 48 h, after which cells were precipitated with 25 μL of ice-cold 50% (w/v) trichloroacetic acid and fixed for 60 min at 4 °C. Then, the SRB assay was performed. The optical density (OD) of each well was measured at 530 nm, using BioTek’s PowerWave XS Absorbance Microplate Reader. Values were corrected for background OD from wells containing only culture medium. The percentage growth (PG) was calculated with respect to untreated control cells (C) at each level of drug concentrations based on the difference in OD at the start time (T0) and at the end of drug exposure (T), according to NCI formulas. Therefore, if T is greater than or equal to T0, the calculation is 100 × ((T − T0)/(C − T0)). If T is lower than T0, denoting cell death, the calculation is 100 × ((T − T0)/(T0)). The effect is defined as the growth percentage, where 50% growth inhibition (GI50) represents the concentration at which PG is +50. Based on these calculations, a PG value of 0 corresponds to the number of cells present at the beginning of drug exposure, while negative PG values denote net cell death.

HBL-100 = experiment: Antiproliferative SRB assay (NCI protocol), HBL-100; assay type: cell-based, human; settings: for GI50: HBL-100 (breast), 48 h drug exposure, SRB, ± SD; for Selectivity index (SI) on tumor cells: CC50 splenocytes / GI50 HBL-100
Method: as §1, §2, §3

HeLa = experiment: Antiproliferative SRB assay (NCI protocol), HeLa; assay type: cell-based, human; settings: for GI50: HeLa (cervix), 48 h drug exposure, SRB, ± SD; for Selectivity index (SI) on tumor cells: CC50 splenocytes / GI50 HeLa
Method: as §1, §2, §3

SW1573 = experiment: Antiproliferative SRB assay (NCI protocol), SW1573; assay type: cell-based, human; settings: for GI50: SW1573 (non-small cell lung), 48 h drug exposure, SRB, ± SD; for Selectivity index (SI) on tumor cells: CC50 splenocytes / GI50 SW1573
Method: as §1, §2, §3

T-47D = experiment: Antiproliferative SRB assay (NCI protocol), T-47D; assay type: cell-based, human; settings: for GI50: T-47D (breast), 48 h drug exposure, SRB, ± SD; for Selectivity index (SI) on tumor cells: CC50 splenocytes / GI50 T-47D
Method: as §1, §2, §3

WiDr = experiment: Antiproliferative SRB assay (NCI protocol), WiDr; assay type: cell-based, human; settings: for GI50: WiDr (colon), 48 h drug exposure, SRB, ± SD; for Selectivity index (SI) on tumor cells: CC50 splenocytes / GI50 WiDr
Method: as §1, §2, §3

[1] = test system: Trypanosoma cruzi epimastigotes (RA strain); experiment: In vitro anti-Trypanosoma cruzi assay ((3H) thymidine uptake); assay type: cell-based; settings: for Trypanocidal activity (in words): T. cruzi; for pIC50: epimastigotes (RA strain), ± SD; for Selectivity Index on T. cruzi epimastigotes: CC50 splenocytes / IC50 epimastigotes
Method: Trypanosoma cruzi epimastigotes (RA strain, from discrete typing unit (DTU) VI) were grown in a biphasic medium. Cultures were maintained by weekly passages at 28 °C [18].
The growth inhibition of T. cruzi epimastigotes was evaluated by a (^3H) thymidine uptake assay as previously described. Natural sesquiterpenes and derivatives were evaluated at concentrations ranging from 1.5 to 50 µg/mL. Benznidazole (Active Pharmaceutical Ingredient) was used as positive control (Elea). The percentage of inhibition was calculated as 100 = {((cpm of treated parasites)/(cpm of untreated parasites)) × 100}.
Figure 5 Effect of the natural sesquiterpene tessaric acid (1), ilicic acid (2), and ilicic alcohol (3) and their derivatives on T. cruzi. Epimastigotes (RA strain) were cultured in the presence of the compounds (50–1.5 µg/mL). Determinations were performed by triplicate. The results are expressed as the mean ± SD. (A) Effect of tessaric acid and derivatives on epimastigotes; (B) Effect of ilicic acid and derivatives on epimastigotes; (C) Effect of ilicic alcohol and derivatives on epimastigotes.

[2] = test system: HeLa, T-47D, WiDr, A549, HBL-100, and SW1573 cell lines; experiment: Antiproliferative SRB assay, whole panel of human solid tumor cell lines; assay type: cell-based; settings: for Antiproliferative activity (in words): solid tumor cell lines evaluated; for GI50: Homo sapiens, minimal to maximal GI50 across the cell lines tested, 48 h, SRB, read-out: GI50 values, range over all cell lines tested
Method: as §1, §2, §3

[3] = Cytotoxicity on primary cell culture (flow cytometry, PI); assay type: cell-based; settings: Balb/c, mouse, primary splenocytes (spleen cells), ± SD, read-out: Cytotoxic activity on spleen cells (CC50)
Method: The cytotoxicity of the natural sesquiterpenes (1–3) and derivatives (4–19) was determined on primary cell cultures (splenocytes obtained from Balb/c mouse). […] Derivatives of tessaric acid have shown an improvement in CC50 values in comparison with the natural sesquiterpene 1. […] All the derivatives synthesized from alcohol ilicic (compounds 10–19) were more toxic to mammalian cells than the natural compound (3).
The cytotoxicity of the compounds was evaluated on splenocytes obtained from Balb/c mouse (1.5 × 10^5) and incubated with different drug dilutions (5–200 μg/mL) as previously described. Cell death was determined by flow cytometry using a BD FACSaria II cytometer. Cells incubated only with drug vehicle were used as 100% viability control, and death percentage was calculated according to the following formula: Death%=1−(%PI^−cells)drug−treated/(%PI^−cells)100% viability control × 100
The concentration capable of causing 50% cell death (CC50) was determined using a non-linear regression approach.

Row | SMILES | GI50 (HBL-100; Homo sapiens) [µM] | GI50 (HeLa; Homo sapiens) [µM] | GI50 (SW1573; Homo sapiens) [µM] | GI50 (T-47D; Homo sapiens, T47D) [µM] | GI50 (WiDr; Homo sapiens) [µM] | pIC50 ([1]; Trypanosoma cruzi) | Selectivity index (SI) on tumor cells (A549) | GI50 (A549; Homo sapiens) [µM] | Selectivity index (SI) on tumor cells (HeLa) | Selectivity index (SI) on tumor cells (SW1573) | Selectivity index (SI) on tumor cells (T-47D) | Selectivity index (SI) on tumor cells (WiDr) | CC50 [3] [µM] | Selectivity Index on T. cruzi epimastigotes [1] | GI50 [2] [µM] | also measured
1 | N.N.[Cl][Pt][Cl] [Cisplatin, reference compound] |  |  |  |  |  |  |  |  |  |  |  |  |  |  |  | GI50 (A549): 4.9 µM; GI50 (HBL-100): 1.9 µM; GI50 (HeLa): 1.8 µM; GI50 (SW1573): 2.7 µM; GI50 (T-47D): 17 µM; GI50 (WiDr): 23 µM
2 | C=C(C(=O)O)[C@@H]1CC[C@@]2(C)CCC[C@@](C)(O)[C@@H]2C1 [Compound 2, ilicic acid] | > 100 | > 100 | > 100 | > 100 | > 100 | < 3.70 |  |  |  |  |  |  |  |  |  | Trypanocidal activity (in words) [1]: nor trypanocidal activity; Antiproliferative activity (in words) [2]: did not show antiproliferative activity
3 | C=C(CO)[C@@H]1CC[C@@]2(C)CCC[C@@](C)(O)[C@@H]2C1 [Compound 3, ilicic alcohol] | > 100 | > 100 | > 100 | > 100 | > 100 | 3.81 |  |  |  |  |  |  |  |  |  | Trypanocidal activity (in words) [1]: nor trypanocidal activity; Antiproliferative activity (in words) [2]: did not show antiproliferative activity
4 | C=C(C(=O)N(c1ccccc1)C(C)(C)C(=O)NC(C)(C)C)[C@@H]1CCC2=CC(=O)C[C@H](C)[C@@]2(C)C1 [Compound 4] | > 100 | 68 | 57 | 95 | 98 | 4.79 | 0.25 | 68 | 0.3 | 0.3 | 0.2 | 0.2 | 17.3 | 1.1 |  | 
5 | C=C(C(=O)N(Cc1ccccc1)C(C)(C)C(=O)NC(C)(C)C)[C@@H]1CCC2=CC(=O)C[C@H](C)[C@@]2(C)C1 [Compound 5] | > 100 | > 100 | > 100 | > 100 | > 100 | 5.03 |  | > 100 |  |  |  |  | 44.7 | 4.8 |  | 
6 | C=C(C(=O)N(c1ccccc1)C(C)(C)C(=O)NCc1ccccc1)[C@@H]1CCC2=CC(=O)C[C@H](C)[C@@]2(C)C1 [Compound 6] | 61 | 36 | 40 | 30 | 44 | < 4.00 | 3.1 | 33 | 2.9 | 2.6 | 3.5 | 2.4 | 104 |  | 17 to 64 | Selectivity index (SI) on tumor cells (HBL-100): 1.7
7 | C=C(C(=O)N(Cc1ccccc1)C(C)(C)C(=O)NCc1ccccc1)[C@@H]1CCC2=CC(=O)C[C@H](C)[C@@]2(C)C1 [Compound 7] | 41 | 19 | 30 | 22 | 37 | 5.03 | 1.4 | 27 | 2.0 | 1.3 | 1.7 | 1.0 | 38.1 | 8.0 | 17 to 64 | Selectivity index (SI) on tumor cells (HBL-100): 0.9; pIC50 [1]: 5.33
8 | C=C(C(=O)N(c1ccccc1)C(C)(C)C(=O)NC1CCCCC1)[C@@H]1CCC2=CC(=O)C[C@H](C)[C@@]2(C)C1 [Compound 8] | 37 | 31 | 30 | 27 | 30 | 4.20 | 0.7 | 27 | 0.6 | 0.7 | 0.7 | 0.7 | 19.8 | 0.3 | 17 to 64 | Selectivity index (SI) on tumor cells (HBL-100): 0.5
9 | C=C(Cn1cc(CCCCCCCCCC)nn1)[C@@H]1CC[C@@]2(C)CCC[C@@](C)(O)C2C1 (stereo partly drawn) [Compound 16] |  | 13 |  | 17 | 12 | 5.06 |  |  | 6.3 |  | 4.8 | 6.8 | 82.4 | 9.4 | 12 to 17 | 
10 | C#CCCCc1cn(CC(=C)[C@@H]2CC[C@@]3(C)CCC[C@@](C)(O)C3C2)nn1 (stereo partly drawn) [Compound 17] |  | 31 |  | 29 | 31 | 4.83 |  |  | 1.3 |  | 1.4 | 1.3 | 40.4 | 2.7 |  | 
11 | C=C(Cn1cc(Cc2ccccc2)nn1)[C@@H]1CC[C@@]2(C)CCC[C@@](C)(O)C2C1 (stereo partly drawn) [Compound 18] |  | > 100 |  | 44 | 39 | 4.52 |  |  |  |  | 1.4 | 1.6 | 62.2 | 2.1 |  | 
12 | C=C(Cn1cc(-c2ccccc2)nn1)[C@@H]1CC[C@@]2(C)CCC[C@@](C)(O)C2C1 (stereo partly drawn) [Compound 19] |  | 79 |  | 61 | 41 | 4.32 |  |  | 2.4 |  | 3.1 | 4.6 | 187 | 3.9 |  | 
